Patent US9670514B2, “Method for producing polysaccharide” (SANYO CHEMICAL INDUSTRIES, LTD., priority 2011, dated 2017)

Key:
[1] = system: nucleoside diphosphate kinase; assay: Michaelis constant Km of uridine triphosphate synthesis using; type: biochemical, rat; conditions: uridine diphosphate as substrate, adenosine triphosphate as phosphate donor, 30° C., Hanes-Woolf plot
Description: The Michaelis constant Km can be determined through determination of the dependence of the initial enzyme reaction velocity on the substrate concentration in accordance with the method reported by Agarwal et al. (described in Methods of Enzymology, 1978, Vol. 51, pp. 483-491). (D4-1) in a purified form is used for the measurement of the Michaelis constant Km. The inhibitory concentration IC50 is determined by the method described above. […]
(D4-1-2) obtained in Preparation 8 was dissolved in 890 μL of aqueous solution 7 (50 mM phosphate buffer (pH of 7.5, 25° C.) containing 5 mM magnesium chloride and 100 mM adenosine triphosphate (available from Sigma-Aldrich Corporation)) in a 1.5 mL-tube. […] The supernatant (80 μL) was analyzed by HPLC, and the peak areas of uridine triphosphate were recorded.
Solutions were prepared by changing the molar concentration of sodium uridine diphosphate in substrate solution [2-1] to 5 mM (substrate solution [2-2]), 2 mM (substrate solution [2-3]), 1 mM (substrate solution [2-4]), and 0.3 mM (substrate solution [2-5]). […] The peak areas of uridine triphosphate were recorded for enzyme reaction solutions (IV-2-2) to (IV-2-5) in a similar manner for enzyme reaction solution (IV-2-1). […]

chondroitin synthase = target: T1, chondroitin synthase (Pasteurella multocida, UniProt Q9CMP0); assay: Inhibitory concentration IC50 against chondroitin synthase; type: biochemical
T1 construct: FLAG; made in house; host or cells: Escherichia coli SURE, as in Preparation 1
Description: Hyaluronan synthase aqueous solution (B-1) obtained in Preparation 1 was dissolved to a concentration of 1.5 U/mL in 940 μL of aqueous solution 1 (50 mM phosphate buffer (pH of 7.5, 25° C.) containing 5 mM magnesium chloride and 0.05 mM sodium uridine diphosphate) in a 1.5 mL-tube. The tube was allowed to stand at 40° C. for 20 minutes in a constant temperature water bath. To the tube was added 50 μL of temperature-adjusted (40° C.) substrate solution [1-1] (a solution obtained by dissolving uridine diphosphate-glucuronic acid sodium salt and uridine diphosphate-N-acetylglucosamine both to a concentration of 20 mM in buffer solution B (50 mM phosphate buffer, pH of 7.5, 25° C.)). Thereby, enzyme reaction solution (I-1) was obtained. […] The supernatant (80 μL) was analyzed by HPLC under the following conditions, and the peak areas of hyaluronan were recorded. […]
The inhibitory concentration IC50 was measured in a similar manner as in “Measurement of the inhibitory concentration IC50 against hyaluronan synthase”, except that “chondroitin synthase aqueous solution (B-2) obtained in Preparation 11” was used in place of “hyaluronan synthase aqueous solution (B-1) obtained in Preparation 1”, “substrate solution [1-2] […]
The inhibitory concentration IC50 was also determined in a similar manner, except that the amount of chondroitin synthase aqueous solution (B-2) was changed from 1.5 U/mL to 45 U/mL.

O=c1ccn([C@@H]2O[C@H](COP(=O)(O)OP(=O)(O)O)[C@@H](O)[C@H]2O)c(=O)[nH]1 [uridine diphosphate]
Km [1]: 250 µM
IC50 (chondroitin synthase): 85 µM
